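In this assay, cells in 96-well plates receive the compound at five concentrations for 48 hours. Endpoints are linearly interpolated between the surrounding concentrations. At the GI50, growth is halved. Definition used: TGI = concentration required for complete inhibition of growth.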
Columns and labels:
Assay in all cases: inhibition of tumour cell growth, NCI panel, 48 h
ACHN renal = test system: ACHN renal
COLO 205 colon = test system: COLO 205 colon
SNB-75 CNS = test system: SNB-75 CNS
MDA-MB-435 = test system: MDA-MB-435
EKVX NSCLC = test system: EKVX NSCLC
SK-OV-3 ovarian = test system: SK-OV-3 ovarian
MDA-MB-231 breast = test system: MDA-MB-231 breast
NCI-H23 lung = test system: NCI-H23 lung
HCT-15 colon = test system: HCT-15 colon
786-0 renal = test system: 786-0 renal
A498 renal = test system: A498 renal
K-562 leukemia = test system: K-562 leukemia
CCRF-CEM leukemia = test system: CCRF-CEM leukemia
OVCAR-8 ovarian = test system: OVCAR-8 ovarian
HT29 colon = test system: HT29 colon
U251 CNS = test system: U251 CNS
SR leukemia = test system: SR leukemia
HS 578T breast = test system: HS 578T breast
IGROV1 ovarian = test system: IGROV1 ovarian
SNB-19 CNS = test system: SNB-19 CNS
M14 melanoma = test system: M14 melanoma
HCT-116 colon = test system: HCT-116 colon
CAKI-1 renal = test system: CAKI-1 renal
DU-145 prostate = test system: DU-145 prostate
SK-MEL-28 melanoma = test system: SK-MEL-28 melanoma
HOP-62 NSCLC = test system: HOP-62 NSCLC
TK-10 renal = test system: TK-10 renal
MDA-N = test system: MDA-N
NCI-H226 lung = test system: NCI-H226 lung
NCI-H460 lung = test system: NCI-H460 lung
MALME-3M melanoma = test system: MALME-3M melanoma
RPMI-8226 leukemia = test system: RPMI-8226 leukemia
NCI/ADR-RES ovarian = test system: NCI/ADR-RES ovarian
PC-3 prostate = test system: PC-3 prostate
RXF 393 renal = test system: RXF 393 renal
T-47D breast = test system: T-47D breast
SW-620 colon = test system: SW-620 colon
SN12C renal = test system: SN12C renal
SF-295 CNS = test system: SF-295 CNS
OVCAR-5 ovarian = test system: OVCAR-5 ovarian
SK-MEL-2 melanoma = test system: SK-MEL-2 melanoma
SF-268 CNS = test system: SF-268 CNS
HL-60(TB) leukemia = test system: HL-60(TB) leukemia
UO-31 renal = test system: UO-31 renal
SK-MEL-5 melanoma = test system: SK-MEL-5 melanoma
MCF7 breast = test system: MCF7 breast
OVCAR-3 ovarian = test system: OVCAR-3 ovarian
UACC-257 melanoma = test system: UACC-257 melanoma
SF-539 CNS = test system: SF-539 CNS
MOLT-4 leukemia = test system: MOLT-4 leukemia
BT-549 breast = test system: BT-549 breast
LOX IMVI melanoma = test system: LOX IMVI melanoma

## O=C1c2cccnc2-c2nc(-c3ccncc3)cc3c2c1nc1ccccc13
ACHN renal
  GI50: 12.1 µM
  TGI: 24.4 µM
COLO 205 colon
  GI50: 30 µM
  TGI: 72.6 µM
SNB-75 CNS
  GI50: 13.1 µM
  TGI: 25.8 µM
MDA-MB-435
  GI50: 15.5 µM
  TGI: 30.1 µM
EKVX NSCLC
  GI50: 24.3 µM
  TGI: > 100 µM
SK-OV-3 ovarian
  GI50: > 100 µM
  TGI: > 100 µM
MDA-MB-231 breast
  GI50: 14.3 µM
  TGI: 50.1 µM
NCI-H23 lung
  GI50: 12.5 µM
  TGI: 28 µM
HCT-15 colon
  GI50: 10.2 µM
  TGI: 21.8 µM
786-0 renal
  GI50: 15 µM
  TGI: 39.9 µM
A498 renal
  GI50: 38.5 µM
  TGI: > 100 µM
K-562 leukemia
  GI50: 15.4 µM
  TGI: > 100 µM
CCRF-CEM leukemia
  GI50: 8.03 µM
  TGI: 39.6 µM
OVCAR-8 ovarian
  GI50: 10.5 µM
  TGI: 24 µM
HT29 colon
  GI50: 17.9 µM
  TGI: 31.7 µM
U251 CNS
  GI50: 12 µM
  TGI: 64.5 µM
SR leukemia
  GI50: 2.94 µM
  TGI: > 100 µM
HS 578T breast
  GI50: 10.6 µM
  TGI: 23.1 µM
IGROV1 ovarian
  GI50: 4.67 µM
  TGI: 28.8 µM
SNB-19 CNS
  GI50: 19.3 µM
  TGI: 47.4 µM
M14 melanoma
  GI50: 17.8 µM
  TGI: 31.6 µM
HCT-116 colon
  GI50: 17.1 µM
  TGI: 51 µM
CAKI-1 renal
  GI50: 16.4 µM
  TGI: 34.8 µM
DU-145 prostate
  GI50: 20.6 µM
  TGI: 42.7 µM
SK-MEL-28 melanoma
  GI50: > 100 µM
  TGI: > 100 µM
HOP-62 NSCLC
  GI50: 14.3 µM
  TGI: 27.4 µM
TK-10 renal
  GI50: 19.5 µM
  TGI: 40.2 µM
MDA-N
  GI50: 19.9 µM
  TGI: 35.9 µM
NCI-H226 lung
  GI50: 10.9 µM
  TGI: 22.8 µM
NCI-H460 lung
  GI50: 6.29 µM
  TGI: 19.5 µM
MALME-3M melanoma
  GI50: 14.9 µM
  TGI: 29.3 µM
RPMI-8226 leukemia
  GI50: 14.6 µM
  TGI: 64.8 µM
NCI/ADR-RES ovarian
  GI50: 9.63 µM
  TGI: 24.8 µM
PC-3 prostate
  GI50: 16.1 µM
  TGI: 61.9 µM
RXF 393 renal
  GI50: 15.6 µM
  TGI: 66.7 µM
T-47D breast
  GI50: 44.9 µM
  TGI: > 100 µM
SW-620 colon
  GI50: 12.7 µM
  TGI: 41.6 µM
SN12C renal
  GI50: 20 µM
  TGI: 47.5 µM
SF-295 CNS
  GI50: 15.1 µM
  TGI: 28.4 µM
OVCAR-5 ovarian
  GI50: 31.2 µM
  TGI: > 100 µM
SK-MEL-2 melanoma
  GI50: > 100 µM
  TGI: > 100 µM
SF-268 CNS
  GI50: 15.1 µM
  TGI: 34.5 µM
HL-60(TB) leukemia
  GI50: 12.3 µM
  TGI: 89.6 µM
UO-31 renal
  GI50: 33.2 µM
  TGI: > 100 µM
SK-MEL-5 melanoma
  GI50: 14.1 µM
  TGI: 36.5 µM
MCF7 breast
  GI50: 11.4 µM
  TGI: 23.5 µM
OVCAR-3 ovarian
  GI50: 7.51 µM
  TGI: 20 µM
UACC-257 melanoma
  GI50: > 100 µM
  TGI: > 100 µM
SF-539 CNS
  GI50: 2.95 µM
  TGI: 13.6 µM
MOLT-4 leukemia
  GI50: 5.14 µM
  TGI: > 100 µM
BT-549 breast
  GI50: 24.6 µM
  TGI: 62.1 µM
LOX IMVI melanoma
  GI50: 16.1 µM
  TGI: 43.6 µM
